Test results published in US20240208961A1, “EIF4E INHIBITORS AND USES THEREOF” (PIC Therapeutics, Inc., priority 2022, published 2024).
Several values for one entry are separate records, joined by “and”; a condition that tells them apart may be missing. Identical values can stand only once. Like-named read-outs stand apart in the source and are kept apart here.

Assay: Pharmacokinetic study of I-11 in female BALB/c mice (Example 4)
Format: in vivo, Balb/c mouse
Description: Pharmacokinetic Study in Female BALB/c Mice: Balb/c mouse, 17-19 g, 8-10 weeks, female, N=27, purchased from JH Laboratory Animal Co. LTD
Fasted overnight and fed at 4 hr post dosing.
Animals dosed with sampling at 0.083, 0.25, 0.5, 1, 2, 4, 8, 24 hr post dose. 8 time points. Semi-serial bleeding for plasma only. The animals were restrained manually at the designated time points. Approx. 110 μL of blood/time point was taken from the animals via facial vein into tubes with K2EDTA. Blood sample was centrifuged at 4° C. (2000 g, 5 min) to obtain plasma within 15 m after sample collection. Put on wet ice, then plasma samples were stored at approximately −70° C. until analysis.
For oral gavage, compound was dosed as a suspension in […] carboxymethyl cellulose (CMC), 0.2% Tween 80 in water. Compound was orally dosed at 50 mg/Kg, at 100 mg/Kg.
For IV dosing, compound was dissolved into a solution of […], […] HS 15 and 90% Saline. Compound was IV dosed at 5 mg/Kg.
Plasma samples were analyzed for I-11 using LC-MS using a calibration curve of known concentrations.
FIG. 1 describes the mean plasma concentration-time profiles of I-11 after single IV dose of 5 mg/kg, PO dose of 50 mg/kg and 100 mg/kg in female Balb/c mice (N=3/time point). • Note: • 1. […] The IV dosing solutions were prepared in 5% DMSO+5% Solutol HS15+90% Saline. The PO dosing solutions were prepared in 1% CMC-Na+0.2% Tween 80 in water. • 3. BQL=Below quantifiable limit of 3.00 ng/mL for I-11 in female Balb/c mouse plasma samples. • 4. PK parameters were estimated by non-compartmental model using WinNonlin 8.2. If the adjusted rsq (linear regression coefficient of the concentration value on the terminal phase) is less than 0.9, T1/2 might not be accurately estimated. • 5. F value was determined by the following equation: • If AUClast/AUCINF>80%:
F=(AUCINF-EX×DOSEIV)/(AUCINF-IV×DOSEEX)[…] • If AUClast/AUCINF<80% or AUCINF not available:
F=([…])/(AUClast-IV×DOSEEX)[…] • 6. NA: Not available.

[1] = IV 5 mg/kg, 24 hr, BQL = below quantifiable limit of 3.00 ng/mL

CC(C)Cc1sc(Nc2ncc(-c3cccs3)cc2C(=O)O)nc1C(C)(C)C [Compound I-11]
Plasma concentration Individual (IV 5 mg/kg, 0.083 hr, 5 mg/kg): 9810 ng/mL and 12300 ng/mL | Plasma concentration Individual (IV 5 mg/kg, 0.25 hr, 5 mg/kg): 5200 ng/mL and 5420 ng/mL | Plasma concentration Individual (IV 5 mg/kg, 0.5 hr, 5 mg/kg): 2920 ng/mL and 1730 ng/mL | Plasma concentration Individual (IV 5 mg/kg, 1 hr, 5 mg/kg): 865 ng/mL and 1180 ng/mL and 1810 ng/mL | Plasma concentration Individual (IV 5 mg/kg, 2 hr, 5 mg/kg): 142 ng/mL | Plasma concentration Individual (IV 5 mg/kg, 4 hr, 5 mg/kg): 48.5 ng/mL and 29.8 ng/mL | Plasma concentration Individual (IV 5 mg/kg, 8 hr, 5 mg/kg): 26.1 ng/mL and 15.9 ng/mL | Plasma concentration Individual [1]: BQL | Plasma concentration Mean [1]: BQL | abnormal clinical symptoms during in-life study (IV 5 mg/kg, PO 50 and 100 mg/kg single dose): No abnormal clinical symptoms were observed | F (PO 50 mg/kg vs IV 5 mg/kg): 50.9% | Plasma concentration Individual (PO 50 mg/kg, 0.083 hr, 50 mg/kg): 288 ng/mL and 220 ng/mL | Plasma concentration Individual (PO 50 mg/kg, 0.25 hr, 50 mg/kg): 1880 ng/mL and 2380 ng/mL and 1030 ng/mL | Plasma concentration Individual (PO 50 mg/kg, 0.5 hr, 50 mg/kg): 6750 ng/mL and 6980 ng/mL | Plasma concentration Individual (PO 50 mg/kg, 1 hr, 50 mg/kg): 5940 ng/mL and 6670 ng/mL | Plasma concentration Individual (PO 50 mg/kg, 2 hr, 50 mg/kg): 7770 ng/mL and 3890 ng/mL | Plasma concentration Individual (PO 50 mg/kg, 4 hr, 50 mg/kg): 1750 ng/mL and 2280 ng/mL | Plasma concentration Individual (PO 50 mg/kg, 8 hr, 50 mg/kg): 249 ng/mL and 325 ng/mL | Plasma concentration Individual (PO 50 mg/kg, 24 hr, 50 mg/kg): 3.85 ng/mL and 64.0 ng/mL and 182 ng/mL | F (PO 100 mg/kg vs IV 5 mg/kg): 60.0% | Plasma concentration Individual (PO 100 mg/kg, 0.083 hr, 100 mg/kg): 318 ng/mL and 232 ng/mL | Plasma concentration Individual (PO 100 mg/kg, 0.25 hr, 100 mg/kg): 2990 ng/mL and 2700 ng/mL | Plasma concentration Individual (PO 100 mg/kg, 0.5 hr, 100 mg/kg): 4890 ng/mL and 6670 ng/mL and 11900 ng/mL | Plasma concentration Individual (PO 100 mg/kg, 1 hr, 100 mg/kg): 6710 ng/mL and 7030 ng/mL | Plasma concentration Individual (PO 100 mg/kg, 2 hr, 100 mg/kg): 14100 ng/mL and 12300 ng/mL | Plasma concentration Individual (PO 100 mg/kg, 4 hr, 100 mg/kg): 4840 ng/mL and 6930 ng/mL and 12800 ng/mL | Plasma concentration Individual (PO 100 mg/kg, 8 hr, 100 mg/kg): 444 ng/mL and 503 ng/mL and 953 ng/mL | Plasma concentration Individual (PO 100 mg/kg, 24 hr, 100 mg/kg): 40.6 ng/mL and 57.5 ng/mL and 84.2 ng/mL | clearance (female, BALB/c, mouse, plasma, iv, 5 mg/kg, IV 5 mg/kg): 15.8 mL/min/kg | concentration at 0.083 hr (female, BALB/c, mouse, plasma, iv, 5 mg/kg, IV 5 mg/kg, 0.083 hr, read-out: Plasma concentration Individual): 7980 ng/mL | concentration at 0.083 hr (female, BALB/c, mouse, plasma, iv, 5 mg/kg, IV 5 mg/kg, 0.083 hr, read-out: Plasma concentration Mean): 10000 ng/mL | concentration at 0.25 hr (female, BALB/c, mouse, plasma, iv, 5 mg/kg, IV 5 mg/kg, 0.25 hr, read-out: Plasma concentration Individual): 5600 ng/mL | concentration at 0.25 hr (female, BALB/c, mouse, plasma, iv, 5 mg/kg, IV 5 mg/kg, 0.25 hr, read-out: Plasma concentration Mean): 5410 ng/mL | concentration at 0.5 hr (female, BALB/c, mouse, plasma, iv, 5 mg/kg, IV 5 mg/kg, 0.5 hr, read-out: Plasma concentration Individual): 2710 ng/mL | concentration at 0.5 hr (female, BALB/c, mouse, plasma, iv, 5 mg/kg, IV 5 mg/kg, 0.5 hr, read-out: Plasma concentration Mean): 2450 ng/mL | concentration at 1 hr (female, BALB/c, mouse, plasma, iv, 5 mg/kg, IV 5 mg/kg, 1 hr, read-out: Plasma concentration Mean): 1280 ng/mL | concentration at 2 hr (female, BALB/c, mouse, plasma, iv, 5 mg/kg, IV 5 mg/kg, 2 hr, read-out: Plasma concentration Individual): 135 ng/mL | concentration at 2 hr (female, BALB/c, mouse, plasma, iv, 5 mg/kg, IV 5 mg/kg, 2 hr, read-out: Plasma concentration Mean): 140 ng/mL | concentration at 4 hr (female, BALB/c, mouse, plasma, iv, 5 mg/kg, IV 5 mg/kg, 4 hr, read-out: Plasma concentration Individual): 58.3 ng/mL | concentration at 4 hr (female, BALB/c, mouse, plasma, iv, 5 mg/kg, IV 5 mg/kg, 4 hr, read-out: Plasma concentration Mean): 45.5 ng/mL | concentration at 8 hr (female, BALB/c, mouse, plasma, iv, 5 mg/kg, IV 5 mg/kg, 8 hr, read-out: Plasma concentration Individual): 19 ng/mL | concentration at 8 hr (female, BALB/c, mouse, plasma, iv, 5 mg/kg, IV 5 mg/kg, 8 hr, read-out: Plasma concentration Mean): 20.3 ng/mL | concentration at 0.083 hr (female, BALB/c, mouse, plasma, po, 50 mg/kg, PO 50 mg/kg, 0.083 hr, read-out: Plasma concentration Individual): 263 ng/mL | concentration at 0.083 hr (female, BALB/c, mouse, plasma, po, 50 mg/kg, PO 50 mg/kg, 0.083 hr, read-out: Plasma concentration Mean): 257 ng/mL
